# Experiments:
# Assay in all cases: Halosulfuron-methyl tolerance of maize plants (damage degree)
# Format in all cases: in vivo
# Settings in all cases: 36 g ai/ha (4x Hal.); for Average damage % 3 DAT: 3 days after spraying; for Average damage % 7 DAT: 7 days after spraying; for Average damage % 14 DAT: 14 days after spraying; for Average damage % 21 DAT: 21 days after spraying
# [1] = test system: Zm cytoplasmic ALT-3-02 maize plants
# Text: (§1) The herbicide tolerance effects of Zm cytoplasmic ALT-1-02 maize plants, Zm chloroplastic ALT-1-02 maize plants, Zm cytoplasmic ALT-2-02 maize plants, Zm chloroplastic ALT-2-02 maize plants, Zm cytoplasmic ALT-3-02 maize plants, Zm chloroplastic ALT-3-02 maize plants and wild-type maize plants on halosulfuron-methyl were detected (at V3-V4 stage), respectively.
# (§2) Zm cytoplasmic ALT-1-02 maize plants, Zm chloroplastic ALT-1-02 maize plants, Zm cytoplasmic ALT-2-02 maize plants, Zm chloroplastic ALT-2-02 maize plants, Zm cytoplasmic ALT-3-02 maize plants, Zm chloroplastic ALT-3-02 maize plants and wild-type maize plants were respectively taken and sprayed with halosulfuron-methyl (36 g ai/ha, 4-fold field concentration) and a blank solvent (water). The damage degree caused by the herbicide was measured for each plant according to the plant growth status 3 days after spraying (3 DAT), 7 days after spraying (7 DAT), 14 days after spraying (14 DAT) and 21 days after spraying (21 DAT), respectively: considering a growth status equivalent to that of the untreated plants as having a damage degree of 0%; considering conditions of leaves being partially chlorotic and yellow but substantially not affecting the plant normal growth as having a damage degree of 50%; and considering the whole plant being purple and dying as having a damage degree of 100%. There were 2 strains in Zm cytoplasmic ALT-1-02 maize plants in total (S13 and S14), 2 strains in Zm chloroplastic ALT-1-02 maize plants in total (S15 and S16), 2 strains in Zm cytoplasmic ALT-2-02 maize plants in total (S17 and S18), 2 strains in Zm chloroplastic ALT-2-02 maize plants in total (S19 and S20), 2 strains in Zm cytoplasmic ALT-3-02 maize plants in total (S21 and S22), 2 strains in Zm chloroplastic ALT-3-02 maize plants in total (S23 and S24), and 1 strain in wild- type maize plants (CK2) in total; and 10-15 plants were selected from each strain and tested.
# [2] = test system: Zm cytoplasmic ALT-1-02 maize plants
# Text: as §1, §2
# [3] = test system: Zm chloroplastic ALT-1-02 maize plants
# Text: as §1, §2
# [4] = test system: Zm chloroplastic ALT-2-02 maize plants
# Text: as §1, §2
# [5] = test system: Zm chloroplastic ALT-3-02 maize plants
# Text: as §1, §2
smiles,measurement,setting,value
"COC(=O)c1c(Cl)nn(C)c1S(=O)(=O)NC(=O)Nc1nc(OC)cc(OC)n1 [halosulfuron-methyl, 3-chlorine-5-(4,6-dimethoxypyrimidine-2-aminocarbonylaminosulphonyl)-1-methylpyrazole-4-carboxylic acid methyl ester]",Average damage % 3 DAT,[1]; strain S21,0%
same,Average damage % 7 DAT,[1]; strain S21,4%
same,Average damage % 14 DAT,[1]; strain S21,0%
same,Average damage % 21 DAT,[1]; strain S21,0%
same,Average damage % 3 DAT,[1]; strain S22,0%
same,Average damage % 7 DAT,[1]; strain S22,5%
same,Average damage % 14 DAT,[1]; strain S22,0%
same,Average damage % 21 DAT,[1]; strain S22,0%
same,Average damage % 3 DAT,[2]; strain S13,0%
same,Average damage % 7 DAT,[2]; strain S13,2%
same,Average damage % 14 DAT,[2]; strain S13,0%
same,Average damage % 21 DAT,[2]; strain S13,0%
same,Average damage % 3 DAT,[2]; strain S14,0%
same,Average damage % 7 DAT,[2]; strain S14,3%
same,Average damage % 14 DAT,[2]; strain S14,0%
same,Average damage % 21 DAT,[2]; strain S14,0%
same,Average damage % 3 DAT,[3]; strain S15,0%
same,Average damage % 7 DAT,[3]; strain S15,0%
same,Average damage % 14 DAT,[3]; strain S15,0%
same,Average damage % 21 DAT,[3]; strain S15,0%
same,Average damage % 3 DAT,[3]; strain S16,0%
same,Average damage % 7 DAT,[3]; strain S16,0%
same,Average damage % 14 DAT,[3]; strain S16,0%
same,Average damage % 21 DAT,[3]; strain S16,0%
same,Average damage % 3 DAT,[4]; strain S19,0%
same,Average damage % 7 DAT,[4]; strain S19,0%
same,Average damage % 14 DAT,[4]; strain S19,0%
same,Average damage % 21 DAT,[4]; strain S19,0%
same,Average damage % 3 DAT,[4]; strain S20,0%
same,Average damage % 7 DAT,[4]; strain S20,0%
same,Average damage % 14 DAT,[4]; strain S20,0%
same,Average damage % 21 DAT,[4]; strain S20,0%
same,Average damage % 3 DAT,[5]; strain S23,0%
same,Average damage % 7 DAT,[5]; strain S23,0%
same,Average damage % 14 DAT,[5]; strain S23,0%
same,Average damage % 21 DAT,[5]; strain S23,0%
same,Average damage % 3 DAT,[5]; strain S24,0%
same,Average damage % 7 DAT,[5]; strain S24,0%
same,Average damage % 14 DAT,[5]; strain S24,0%
same,Average damage % 21 DAT,[5]; strain S24,0%

# Reference: patent US20190029257A1, “APPLICATION FOR HERBICIDE-TOLERANT PROTEIN” (BEIJING DABEINONG TECHNOLOGY GROUP CO., LTD., priority 2016, published 2019)
